Measurements as given in PMC8848307 (Journal of medicinal chemistry, 2019).

The compounds below were run against STAT3 protein (Homo sapiens, UniProt P40763) (assay: Western blotting of STAT3 degradation in Molm-16 cells). Conditions: Molm-16, 4 h, concentrations up to 1 μM.
STAT3 protein, sequence (P40763 whole entry): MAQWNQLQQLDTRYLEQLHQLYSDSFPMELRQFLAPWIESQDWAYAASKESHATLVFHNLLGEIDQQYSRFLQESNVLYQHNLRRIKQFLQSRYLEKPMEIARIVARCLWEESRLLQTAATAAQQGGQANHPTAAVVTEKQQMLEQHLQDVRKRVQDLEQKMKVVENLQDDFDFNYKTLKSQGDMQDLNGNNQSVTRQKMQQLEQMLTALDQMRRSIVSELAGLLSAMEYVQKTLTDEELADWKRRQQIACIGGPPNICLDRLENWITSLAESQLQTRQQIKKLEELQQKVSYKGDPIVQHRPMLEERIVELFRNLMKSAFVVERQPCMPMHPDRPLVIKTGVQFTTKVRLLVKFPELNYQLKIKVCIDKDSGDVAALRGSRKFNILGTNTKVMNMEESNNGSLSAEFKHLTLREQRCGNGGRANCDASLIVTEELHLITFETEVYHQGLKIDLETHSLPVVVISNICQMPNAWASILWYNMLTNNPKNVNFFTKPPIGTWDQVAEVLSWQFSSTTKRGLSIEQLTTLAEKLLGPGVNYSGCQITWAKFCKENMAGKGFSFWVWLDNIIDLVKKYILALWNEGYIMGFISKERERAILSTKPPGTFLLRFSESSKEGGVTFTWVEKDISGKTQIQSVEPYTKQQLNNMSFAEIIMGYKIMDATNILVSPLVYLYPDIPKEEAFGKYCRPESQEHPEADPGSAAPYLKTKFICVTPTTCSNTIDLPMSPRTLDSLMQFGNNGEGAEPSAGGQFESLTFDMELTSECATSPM
Type: cell-based
With `NC(=O)CC[C@H](NC(=O)[C@@H]1CC[C@@H]2CCN(C(=O)CCCC#Cc3cccc4c3CN(C3CCC(=O)NC3=O)C4=O)C[C@H](NC(=O)c3cc4cc(C(F)(F)P(=O)(O)O)ccc4[nH]3)C(=O)N21)C(=O)NC(c1ccccc1)c1ccccc1` (stereo partly drawn) [Compound 12, ((2-(((5S,8S,10aR)-8-(((S)-5-Amino-1-(benzhydrylamino)-1,5-dioxopentan-2-yl)carbamoyl)-3-(6-(2-(2,6-dioxopiperidin-3-yl)-1-oxoisoindolin-4-yl)hex-5-ynoyl)-6-oxodecahydropyrrolo-[1,2-a][1,5]diazocin-5-yl)carbamoyl)-1H-indol-5-yl)-difluoromethyl)phosphonic Acid] the “effect on the level of total STAT3 protein” value was “no effect”.

Same assay, conditions: Molm-16, 4 h, up to / at 1 μM
With `NC(=O)CC[C@H](NC(=O)[C@@H]1CC[C@@H]2CCN(C(=O)CCCC#Cc3cccc4c3CN(C3CCC(=O)NC3=O)C4=O)C[C@H](NC(=O)c3cc4cc(C(F)(F)P(=O)(O)O)ccc4[nH]3)C(=O)N21)C(=O)NC(c1ccccc1)c1ccccc1` (stereo partly drawn) [Compound 12, ((2-(((5S,8S,10aR)-8-(((S)-5-Amino-1-(benzhydrylamino)-1,5-dioxopentan-2-yl)carbamoyl)-3-(6-(2-(2,6-dioxopiperidin-3-yl)-1-oxoisoindolin-4-yl)hex-5-ynoyl)-6-oxodecahydropyrrolo-[1,2-a][1,5]diazocin-5-yl)carbamoyl)-1H-indol-5-yl)-difluoromethyl)phosphonic Acid] the “effect on the level of pSTAT3^Y705 protein” value was “only minimally”.

Same assay, conditions: Molm-16 cells, ratio of DC50
`NC(=O)CC[C@H](NC(=O)[C@@H]1CC[C@@H]2CCN(C(=O)CCCn3cc(C#Cc4cccc5c4CN(C4CCC(=O)NC4=O)C5=O)cn3)C[C@H](NC(=O)c3cc4cc(C(F)(F)P(=O)(O)O)ccc4[nH]3)C(=O)N21)C(=O)NC(c1ccccc1)c1ccccc1` (stereo partly drawn) [Compound 21, ((2-(((5S,8S,10aR)-8-(((S)-5-Amino-1-(benzhydrylamino)-1,5-dioxopentan-2-yl)carbamoyl)-3-(4-(4-((2-(2,6-dioxopiperidin-3-yl)-1-oxoisoindolin-4-yl)ethynyl)-1H-pyrazol-1-yl)butanoyl)-6-oxodecahydropyrrolo[1,2-a][1,5]diazocin-5-yl)carbamoyl)-1H-indol-5-yl)difluoromethyl)phosphonic Acid] was tested, and the “times less potent than SD-36 in STAT3 degradation” value was 3–4 times.
With `NC(=O)CC[C@H](NC(=O)[C@@H]1CC[C@@H]2CCN(C(=O)CCN3CCC(C#Cc4cccc5c4CN(C4CCC(=O)NC4=O)C5=O)CC3)C[C@H](NC(=O)c3cc4cc(C(F)(F)P(=O)(O)O)ccc4[nH]3)C(=O)N21)C(=O)NC(c1ccccc1)c1ccccc1` (stereo partly drawn) [Compound 23, ((2-(((5S,8S,10aR)-8-(((S)-5-Amino-1-(benzhydrylamino)-1,5-dioxopentan-2-yl)carbamoyl)-3-(3-(4-((2-(2,6-dioxopiperidin-3-yl)-1-oxoisoindolin-4-yl)ethynyl)piperidin-1-yl)propanoyl)-6-oxodecahydropyrrolo[1,2-a][1,5]diazocin-5-yl)carbamoyl)-1H-indol-5-yl)difluoromethyl)phosphonic Acid] the “times less potent than SD-36 in STAT3 degradation” value was 40 times.
`NC(=O)CC[C@H](NC(=O)[C@@H]1CC[C@@H]2CCN(C(=O)CCCCCCCCC#Cc3cccc4c3CN(C3CCC(=O)NC3=O)C4=O)C[C@H](NC(=O)c3cc4cc(C(F)(F)P(=O)(O)O)ccc4[nH]3)C(=O)N21)C(=O)NC(c1ccccc1)c1ccccc1` (stereo partly drawn) [Compound 16, ((2-(((5S,8S,10aR)-8-(((S)-5-Amino-1-(benzhydrylamino)-1,5-dioxopentan-2-yl)carbamoyl)-3-(11-(2-(2,6-dioxopiperidin-3-yl)-1-oxoisoindolin-4-yl)undec-10-ynoyl)-6-oxodecahydropyrrolo[1,2-a][1,5]diazocin-5-yl)carbamoyl)-1H-indol-5-yl)difluoromethyl)phosphonic Acid] was tested, and the “times less potent than SD-36 in STAT3 degradation” value was 2–3 times.
With `NC(=O)CC[C@H](NC(=O)[C@@H]1CC[C@@H]2CCN(C(=O)CCCCCCNc3cccc4c3CN(C3CCC(=O)NC3=O)C4=O)C[C@H](NC(=O)c3cc4cc(C(F)(F)P(=O)(O)O)ccc4[nH]3)C(=O)N21)C(=O)NC(c1ccccc1)c1ccccc1` (stereo partly drawn) [Compound 26, ((2-(((5S,8S,10aR)-8-(((S)-5-Amino-1-(benzhydrylamino)-1,5-dioxopentan-2-yl)carbamoyl)-3-(7-((2-(2,6-dioxopiperidin-3-yl)-1-oxoisoindolin-4-yl)amino)heptanoyl)-6-oxodecahydropyrrolo[1,2-a][1,5]diazocin-5-yl)carbamoyl)-1H-indol-5-yl)difluoromethyl)phosphonic Acid] the “times less potent than SD-36 in STAT3 degradation” value was 2–3 times.
In the case of `NC(=O)CC[C@H](NC(=O)[C@@H]1CC[C@@H]2CCN(C(=O)N3CCC(CCC#Cc4cccc5c4CN(C4CCC(=O)NC4=O)C5=O)CC3)C[C@H](NC(=O)c3cc4cc(C(F)(F)P(=O)(O)O)ccc4[nH]3)C(=O)N21)C(=O)NC(c1ccccc1)c1ccccc1` (stereo partly drawn) [Compound 22, ((2-(((5S,8S,10aR)-8-(((S)-5-Amino-1-(benzhydrylamino)-1,5-dioxopentan-2-yl)carbamoyl)-3-(4-(4-(2-(2,6-dioxopiperidin-3-yl)-1-oxoisoindolin-4-yl)but-3-yn-1-yl)piperidine-1-carbon-yl)-6-oxodecahydropyrrolo[1,2-a][1,5]diazocin-5-yl)-carbamoyl)-1H-indol-5-yl)difluoromethyl)phosphonic Acid], the “times less potent than SD-36 in STAT3 degradation” value is reported as 3 times.
With `NC(=O)CC[C@H](NC(=O)[C@@H]1CC[C@@H]2CCN(C(=O)CCCCCCCc3cccc4c3CN(C3CCC(=O)NC3=O)C4=O)C[C@H](NC(=O)c3cc4cc(C(F)(F)P(=O)(O)O)ccc4[nH]3)C(=O)N21)C(=O)NC(c1ccccc1)c1ccccc1` (stereo partly drawn) [Compound 25, ((2-(((5S,8S,10aR)-8-(((S)-5-Amino-1-(benzhydrylamino)-1,5-dioxopentan-2-yl)carbamoyl)-3-(8-(2-(2,6-dioxopiperidin-3-yl)-1-oxoisoindolin-4-yl)octanoyl)-6-oxodecahydropyrrolo-[1,2-a][1,5]diazocin-5-yl)-carbamoyl)-1H-indol-5-yl)-difluoromethyl)phosphonic Acid] the “times less potent than SD-36 in STAT3 degradation” value was 2–3 times.
`NC(=O)CC[C@H](NC(=O)[C@@H]1CC[C@@H]2CCN(C(=O)CCCCCC#Cc3ccc4c(c3)CN(C3CCC(=O)NC3=O)C4=O)C[C@H](NC(=O)c3cc4cc(C(F)(F)P(=O)(O)O)ccc4[nH]3)C(=O)N21)C(=O)NC(c1ccccc1)c1ccccc1` (stereo partly drawn) [Compound 28, ((2-(((5S,8S,10aR)-8-(((S)-5-Amino-1-(benzhydrylamino)-1,5-dioxopentan-2-yl)carbamoyl)-3-(8-(2-(2,6-dioxopiperidin-3-yl)-1-oxoisoindolin-5-yl)oct-7-ynoyl)-6-oxodecahydropyrrolo-[1,2-a][1,5]diazocin-5-yl)carbamoyl)-1H-indol-5-yl)difluoromethyl)phosphonic Acid] was tested, and the “times less potent than SD-36 in STAT3 degradation” value was 5–10 times.
In the case of `NC(=O)CC[C@H](NC(=O)[C@@H]1CC[C@@H]2CCN(C(=O)c3cnn(CCCC#Cc4cccc5c4CN(C4CCC(=O)NC4=O)C5=O)c3)C[C@H](NC(=O)c3cc4cc(C(F)(F)P(=O)(O)O)ccc4[nH]3)C(=O)N21)C(=O)NC(c1ccccc1)c1ccccc1` (stereo partly drawn) [Compound 20, ((2-(((5S,8S,10aR)-8-(((S)-5-Amino-1-(benzhydrylamino)-1,5-dioxopentan-2-yl)carbamoyl)-3-(1-(5-(2-(2,6-dioxopiperidin-3-yl)-1-oxoisoindolin-4-yl)pent-4-yn-1-yl)-1H-pyrazole-4-carbonyl)-6-oxodecahydropyrrolo[1,2-a][1,5]diazocin-5-yl)-carbamoyl)-1H-indol-5-yl)difluoromethyl)phosphonic Acid], the “times less potent than SD-36 in STAT3 degradation” value is reported as 3–4 times.
